# Data as given in the supplement of paper PMC10331698.
# ± gives the standard deviation of the averaged measurements.
# Tests used:
# Test in all cases: level (log10 ratio to DMSO vehicle control); higher = higher biomarker level / cell amount than vehicle control
# Conditions in all cases: in DMSO
# Pentafluoropropionamide = compound: NC(=O)C(F)(F)C(F)(F)F [Pentafluoropropionamide]
# Experimental: (§1)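 BioMAP Diversity Plus panel of 12 human primary cell co-culture systems (3C, 4H, LPS, SAg, BT, BF4T, BE3C, CASM3C, HDF3CGF, KF3CT, MyoF, Mphg). Compounds were added 1 h before stimulation and left for 24 h (MyoF 48 h; BT 72 h for soluble read-outs or 6 d for IgG). Biomarkers were read by ELISA, cytotoxicity by SRB, PBMC viability and proliferation by Alamar Blue. Each well value was divided by the mean of 8 DMSO control wells on the same plate and log10 transformed; duplicate blinded samples were tested at 4 concentrations.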
# Perfluorodecanoic acid = compound: O=C(O)C(F)(F)C(F)(F)C(F)(F)C(F)(F)C(F)(F)C(F)(F)C(F)(F)C(F)(F)C(F)(F)F [Perfluorodecanoic acid]
# Experimental: as §1
# [1] = compound: CCN(CCO)S(=O)(=O)C(F)(F)C(F)(F)C(F)(F)C(F)(F)C(F)(F)C(F)(F)C(F)(F)C(F)(F)F [N-Ethyl-N-(2-hydroxyethyl)perfluorooctanesulfonamide]
# Experimental: as §1
# Perfluoro-1-iodohexane = compound: FC(F)(F)C(F)(F)C(F)(F)C(F)(F)C(F)(F)C(F)(F)I [Perfluoro-1-iodohexane]
# Experimental: as §1
# [2] = compound: NCC(F)(F)C(F)(F)C(F)(F)C(F)(F)C(F)(F)C(F)(F)C(F)(F)F [1H,1H-Perfluorooctylamine]
# Experimental: as §1
# [3] = compound: O=C(O)C(F)(F)C(F)(F)C(F)(F)C(F)(F)C(F)(F)C(F)(F)C(F)(F)C(F)F [9-H-Perfluorononanoic acid]
# Experimental: as §1
# [4] = compound: O=C(O)C(F)(F)OC(F)(F)C(F)(F)OC(F)(F)F [Perfluoro-3,6-dioxaheptanoic acid]
# Experimental: as §1
Test System,level (log10) (Pentafluoropropionamide; 6700 nM),level (log10) (Pentafluoropropionamide; 20000 nM),level (log10) (Pentafluoropropionamide; 60000 nM),level (log10) (Perfluorodecanoic acid; 6700 nM),level (log10) (Perfluorodecanoic acid; 20000 nM),level (log10) ([1]; 6700 nM),level (log10) ([1]; 20000 nM),level (log10) (Perfluoro-1-iodohexane; 6700 nM),level (log10) (Perfluoro-1-iodohexane; 20000 nM),level (log10) (Perfluoro-1-iodohexane; 60000 nM),level (log10) ([2]; 6700 nM),level (log10) ([2]; 20000 nM),level (log10) ([2]; 60000 nM),level (log10) ([3]; 6700 nM),level (log10) ([3]; 20000 nM),level (log10) ([3]; 60000 nM),level (log10) ([4]; 6700 nM),level (log10) ([4]; 20000 nM),level (log10) ([4]; 60000 nM)
3C:CCL2/MCP-1,0.006 ± 0.018,-0.007 ± 0.0099,0.0275 ± 0.00071,0.0065 ± 0.013,-0.004 ± 0.0028,-0.032 ± 0.016,-0.145 ± 0.032,-0.0105 ± 0.0021,-0.006 ± 0.02,0.003 ± 0.047,-0.003 ± 0.0099,0.0095 ± 0.021,0.0275 ± 0.028,-0.001 ± 0.021,0.0125 ± 0.0092,0.0415 ± 0.005,-0.023 ± 0.044,-0.015 ± 0.013,-0.023 ± 0.021
lMphg:CD69,-0.021 ± 0.0071,-0.036,0.0125 ± 0.077,-0.013 ± 0.054,-0.055 ± 0.052,-0.0715 ± 0.012,-0.129 ± 0.0099,-0.031 ± 0.048,-0.0425 ± 0.06,-0.031 ± 0.045,-0.039 ± 0.0099,-0.0475 ± 0.019,-0.0265 ± 0.00071,-0.0445 ± 0.088,-0.038 ± 0.054,-0.072 ± 0.0099,0.0255 ± 0.069,0.0085 ± 0.033,0.058 ± 0.0085
lMphg:CCL2/MCP-1,-0.0145 ± 0.0035,-0.012 ± 0.0042,0 ± 0.03,0.001 ± 0.0042,0.0095 ± 0.023,0.007 ± 0.034,0.002 ± 0.023,-0.021 ± 0.0099,0.0145 ± 0.032,-0.003 ± 0.025,-0.03 ± 0.0099,-0.0245 ± 0.016,-0.0275 ± 0.04,-0.0085 ± 0.0021,-0.0215 ± 0.013,0.014 ± 0.04,0.0035 ± 0.00071,-0.006 ± 0.0099,0 ± 0.0042
3C:CD142/Tissue Factor,-0.0305 ± 0.032,-0.0575 ± 0.019,-0.0205 ± 0.015,-0.013 ± 0.013,-0.029 ± 0.0042,0.0825 ± 0.036,0.235 ± 0.059,0.0025 ± 0.032,0.0005 ± 0.013,0.0185 ± 0.022,-0.0275 ± 0.00071,-0.0105 ± 0.00071,-0.0255 ± 0.011,0.035 ± 0.0028,0.027 ± 0.0042,0.059 ± 0.023,-0.0295 ± 0.047,-0.025 ± 0.04,-0.053 ± 0.0014
BE3C:tPA,-0.0055 ± 0.012,-0.001 ± 0.018,0.003 ± 0.02,0.0215 ± 0.026,-0.546 ± 0.0085,0.142 ± 0.0099,-0.036 ± 0.058,-0.008 ± 0.028,-0.008 ± 0.023,0.0125 ± 0.028,-0.035 ± 0.016,-0.001 ± 0.034,-0.0145 ± 0.028,0.075 ± 0.023,0.0285 ± 0.019,0.002 ± 0.025,-0.025 ± 0.0099,-0.0485 ± 0.0021,-0.03 ± 0.033
MyoF:MMP-1,-0.0305 ± 0.063,-0.0255 ± 0.0064,0.016 ± 0.058,-0.0005 ± 0.023,-0.048 ± 0.0057,0.069 ± 0.021,0.426 ± 0.052,0.036 ± 0.0071,0.451 ± 0.19,0.661 ± 0.0028,-0.0095 ± 0.016,-0.0395 ± 0.012,-0.0055 ± 0.025,-0.015 ± 0.0099,-0.005,-0.0215 ± 0.023,-0.0045 ± 0.0021,-0.0545 ± 0.013,0.041 ± 0.054
HDF3CGF:CXCL10/IP-10,-0.0075 ± 0.022,-0.009 ± 0.011,0.006 ± 0.04,-0.0745 ± 0.015,-0.427 ± 0.019,-0.0725 ± 0.05,-0.206 ± 0.0057,-0.033 ± 0.014,-0.0435 ± 0.0035,-0.114 ± 0.076,0.0115 ± 0.03,-0.006 ± 0.011,-0.0005 ± 0.00071,-0.0535 ± 0.016,-0.023 ± 0.02,-0.052 ± 0.017,0.007 ± 0.011,0.0095 ± 0.0078,-0.0075 ± 0.043
KF3CT:IL-1alpha,-0.0165 ± 0.005,-0.034 ± 0.0085,-0.0105 ± 0.044,-0.0535 ± 0.0035,-0.068 ± 0.0042,0.006 ± 0.028,-0.111,0.008 ± 0.017,0.005 ± 0.017,-0.014 ± 0.017,-0.0225 ± 0.0035,-0.001 ± 0.013,-0.0095 ± 0.0021,0.006 ± 0.0071,-0.0195 ± 0.012,-0.039 ± 0.035,-0.011 ± 0.025,0.032 ± 0.03,-0.1 ± 0.067
KF3CT:PAI-I,-0.006 ± 0.0057,0.002 ± 0.0014,0.0075 ± 0.0021,-0.0365 ± 0.023,-0.144 ± 0.042,-0.0995 ± 0.011,-0.193 ± 0.014,0.001 ± 0.0014,-0.0005 ± 0.005,0.0055 ± 0.005,-0.0025 ± 0.005,-0.001 ± 0.0014,0.003 ± 0.014,-0.0045 ± 0.0035,0.007 ± 0.0071,0.003 ± 0.0085,0.0035 ± 0.096,0.009 ± 0.0085,0.008 ± 0.072
MyoF:TIMP-1,-0.053 ± 0.027,-0.048 ± 0.034,-0.0225 ± 0.064,-0.0345 ± 0.035,-0.059 ± 0.038,-0.112 ± 0.011,-0.0885 ± 0.0092,0.036 ± 0.0085,0.0395 ± 0.011,-0.058 ± 0.0014,0.0045 ± 0.0092,0.01 ± 0.025,-0.0005 ± 0.0021,0.0495 ± 0.044,0.0665 ± 0.019,0.117 ± 0.037,-0.0305 ± 0.097,-0.006 ± 0.079,-0.001 ± 0.044
KF3CT:MMP-9,-0.0375 ± 0.012,-0.0255 ± 0.00071,-0.0105 ± 0.012,-0.103 ± 0.037,-0.308 ± 0.0028,0.01 ± 0.0085,-0.0875 ± 0.015,-0.0225 ± 0.0064,-0.0225 ± 0.0092,-0.044 ± 0.0099,0.0085 ± 0.0092,0.0025 ± 0.0035,0.0065 ± 0.005,-0.05 ± 0.013,0.004 ± 0.0014,0.0475 ± 0.011,-0.0195 ± 0.033,-0.0205 ± 0.05,-0.028 ± 0.034
3C:CD141/Thrombomodulin,-0.0355 ± 0.032,-0.0165 ± 0.005,-0.027 ± 0.018,-0.019 ± 0.025,-0.0445 ± 0.012,0.046 ± 0.03,0.261 ± 0.14,-0.025 ± 0.013,-0.023 ± 0.014,-0.0015 ± 0.005,-0.036 ± 0.033,-0.0295 ± 0.033,-0.0385 ± 0.039,0.012 ± 0.0085,-0.003 ± 0.0085,-0.0365 ± 0.0078,-0.037 ± 0.04,-0.0105 ± 0.044,-0.0255 ± 0.077
lMphg:sIL-10,-0.0095 ± 0.044,-0.01 ± 0.028,-0.0635 ± 0.12,-0.018 ± 0.055,-0.036 ± 0.028,0 ± 0.024,-0.0505 ± 0.028,-0.0575 ± 0.1,-0.048 ± 0.0042,-0.047 ± 0.0057,-0.067 ± 0.14,-0.002 ± 0.082,-0.022 ± 0.04,-0.0465 ± 0.00071,-0.0225 ± 0.04,-0.642 ± 0.04,-0.0215 ± 0.0035,0.0045 ± 0.012,-0.108 ± 0.044
HDF3CGF:CCL2/MCP-1,-0.024 ± 0.034,-0.0245 ± 0.012,-0.015 ± 0.031,-0.0595 ± 0.0078,0.042 ± 0.034,-0.0485 ± 0.005,-0.1335 ± 0.00071,-0.0125 ± 0.013,-0.02 ± 0.0099,-0.065 ± 0.034,-0.006 ± 0.016,-0.0045 ± 0.012,-0.0165 ± 0.0078,-0.023 ± 0.028,-0.0185 ± 0.044,-0.0415 ± 0.052,0.0155 ± 0.029,0.027 ± 0.023,0.0055 ± 0.049
